Data reported in patent publication US20050261332A1, “Sulfonamides and uses thereof” (priority 2004, published 2005).

These compounds were tested on mice (assay: fast refeed (fast-refeeding) assay in mice).
Type: in vivo
Experimental: In vivo assays. Exemplary in vivo assays include the fast-refeeding assay described in Example 1 and as follows.
Food is removed at 6 pm for an overnight (˜16 hour) fast. Beginning at 10 am on the next morning, mice are administered with either vehicle (e.g., saline+acetic acid, pH=5) or the compound of interest. Mice are then returned to their home cages and pre-weighed food (approximately 90 grams) is immediately returned to the food hoppers in each cage. The weight of the food remaining in the food hoppers is measured at 30 minutes, 1 hour, 2 hours, and 4 hours post compound/vehicle administration. Final body weights are then recorded for the mice.

| Compound | feeding activity of mice in the fast refeed assay |
| --- | --- |
| substance P: substance P; found to modulate GHS-R activity and to alter feeding activity of mice | alters feeding activity |

What follows are compounds tested against T1, GHS-R (Homo sapiens, UniProt Q92847) (assay: GHS-R competition binding assay (Ki of GHS-R antagonizing compounds)).
T1 construct: expressed in transfected cells; host or cells: COS-7 cells
In short: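 COS-7 cells expressing GHS-R (1×10^5 cells/well) competed against 25 pM ^125I-ghrelin for 3 hours at 4° C in 50 mM HEPES pH 7.4 with 1 mM CaCl2, 5 mM MgCl2, 0.1% BSA, bacitracin. Nonspecific binding with […]; bound radioactivity counted after washing and lysis. Ki=IC50/(1+L/Kd).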

T1 sequence (Q92847 whole entry, species assumed): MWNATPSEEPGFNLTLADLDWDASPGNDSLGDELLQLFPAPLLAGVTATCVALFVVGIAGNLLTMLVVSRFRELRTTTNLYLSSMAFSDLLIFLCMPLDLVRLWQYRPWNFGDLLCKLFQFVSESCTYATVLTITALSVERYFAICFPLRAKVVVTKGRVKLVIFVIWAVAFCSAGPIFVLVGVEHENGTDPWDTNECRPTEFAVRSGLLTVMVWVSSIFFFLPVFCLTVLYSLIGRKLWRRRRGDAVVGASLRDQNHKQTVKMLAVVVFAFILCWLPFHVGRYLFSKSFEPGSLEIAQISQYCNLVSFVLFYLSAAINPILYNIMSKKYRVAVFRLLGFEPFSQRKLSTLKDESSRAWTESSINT

| Ki | Compound |
| --- | --- |
| 100 to 1000 nM | CCN(CC)CCCS(=O)(=O)N[C@H](COCc1ccccc1)C(=O)NCc1ccc(-c2ccccc2CN)cc1 [Compound 213, (R)-N-(2′-Aminomethyl-biphenyl-4-ylmethyl)-3-benzyloxy-2-(3-diethylamino-propane-1-sulfonylamino)-propionamide] |
| 100 to 1000 nM | CCN(CC)CCCS(=O)(=O)N[C@H](COCc1ccccc1)C(=O)NCc1ccc(-c2ccccc2CNC(=O)NC)cc1 [Compound 214, (R)-3-Benzyloxy-2-(3-diethylamino-propane-1-sulfonylamino)-N-{2′[(3-methyl-ureido)-methyl]-biphenyl-4-ylmethyl}-propionamide] |
| > 1000 nM | CCN(CC)CCS(=O)(=O)N[C@H](CCc1ccccc1)C(=O)c1ccc(-c2ccccc2COC(=O)NC)cc1 [Compound 215, (R)-(4′-(2-(2-(diethylamino)ethylsulfonamido)-4-phenylbutanoyl)biphenyl-2-yl)methyl methylcarbamate] |
| > 1000 nM | CCN(CC)CCCS(=O)(=O)N[C@H](COCc1ccccc1)C(=O)NCc1ccc(-c2ccccc2CNC(C)=O)cc1 [Compound 216, (R)-N-[2′-(Acetylamino-methyl)-biphenyl-4-ylmethyl]-3-benzyloxy-2-(3-diethylamino-propane-1-sulfonylamino)-propionamide] |
| 100 to 1000 nM | CCN(CC)CCCS(=O)(=O)N[C@H](COCc1ccccc1)C(=O)NCc1ccc(-c2ccccc2CCNC(=O)NC)cc1 [Compound 217, (R)-3-Benzyloxy-2-(3-diethylamino-propane-1-sulfonylamino)-N-{2′-[2-(3-methyl-ureido)-ethyl]-biphenyl-4-ylmethyl}-propionamide] |
| > 1000 nM | CCN(CC)CCS(=O)(=O)N[C@H](CCc1ccccc1)C(=O)c1ccc(-c2ccccc2C(N)=O)cc1 [Compound 218, (R)-4′-(2-(2-(diethylamino)ethylsulfonamido)-4-phenylbutanoyl)biphenyl-2-carboxamide] |
| 100 to 1000 nM | CCN(CC)CCCS(=O)(=O)N[C@H](COCc1ccccc1)C(=O)c1ccc(-c2ccccc2COC(=O)NC)cc1 [Compound 219, (R)-Methyl-carbamic acid 4′-[(R)-3-benzyloxy-2-(3-diethylamino-propane-1-sulfonylamino)-propionyl]-biphenyl-2-ylmethyl ester] |
| 100 to 1000 nM | CS(=O)(=O)N1CC2(CCN(C(=O)[C@@H](CCCc3ccccc3)NS(=O)(=O)CCCN=[N+]=[N-])CC2)c2ccccc21 [Compound 220, (R)-3-azido-N-(1-(1-(methylsulfonyl)spiro[indoline-3,4′-piperidine]-1′-yl)-1-oxo-5-phenylpentan-2-yl)propane-1-sulfonamide] |

| Compound | Ki |
| --- | --- |
| (R)-N-(3-(benzyloxy)-1-(1-(methylsulfonyl)spiro[indoline-3,4′-piperidine]-1′-yl)-1-oxopropan-2-yl)-3-isosulfonylazolidine [Compound 151] | 100 to 1000 nM |
